Patent US10106502B2, “Direct inhibitors of Keap1-Nrf2 interaction as antioxidant inflammation modulators” (Rutgers, The State University of New Jersey, priority 2011, dated 2018)

Columns and labels:
[1] = target: T1, Keap1 Kelch domain (Homo sapiens, UniProt Q14145); test: FP assay, dose-response retest of HTS hits; assay type: binding; design: Human Keap1 Kelch domain protein was cloned into expression vector pET15b; inferred from vector pET15b and Ni-NTA purification) (N); made in house; host or cells: E. coli BL21 (DE3)
T1 sequence (Q14145 321-609 limits assumed): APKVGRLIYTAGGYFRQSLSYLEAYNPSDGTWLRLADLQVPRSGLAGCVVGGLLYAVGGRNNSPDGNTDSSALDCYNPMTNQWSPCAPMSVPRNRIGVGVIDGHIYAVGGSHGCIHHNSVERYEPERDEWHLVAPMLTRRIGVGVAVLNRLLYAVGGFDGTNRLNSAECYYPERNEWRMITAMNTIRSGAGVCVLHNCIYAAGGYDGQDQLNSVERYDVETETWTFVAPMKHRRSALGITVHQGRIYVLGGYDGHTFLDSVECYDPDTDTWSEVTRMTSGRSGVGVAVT
Procedure: Human Keap1 Kelch domain protein was cloned into expression vector pET15b and transformed into E. coli BL21 (DE3) strain. The protein was purified through Ni-NTA affinity column. Purified protein was stored in the buffer containing 20 mM HEPES (pH7.4), 5 mM DTT at −80° C.
2) 60 mL of 8 μM Ac-9mer-Nrf2 was prepared by taking 0.48 mL of 1 mM Ac-9mer-Nrf2 in 100% DMSO in 60 mL FP buffer 3) 500 mL of 400 nM Keap1 Kelch domain was prepared by taking 9 mL of 0.75 mg/mL Keap1 Kelch domain in 500 mL FP buffer.
10 nM FITC-9mer-Nrf2-NH2, 100 nM Kelch Kelch domain.
The first of these assays is an FP assay that uses a fluorescently labeled Nrf2 peptide amide as the probe and directly measures the displacement of fluorescent probe from the Nrf2-binding site of Keap1 Kelch domain by inhibitors via changes in fluorescence anisotropy. […] The second of the fluorescence-based assays is a time-resolved fluorescence energy transfer (TR-FRET) assay which uses an in situ labeling method we recently developed to attach a lanthanide chelate to Keap1 Kelch domain as the FRET donor and fluorescein-labeled Nrf2 peptide as the acceptor. One advantage of the TR-FRET assay is that it is less susceptible to compound interference than an FP assay.

[2] = system: CellSensor® ARE-bla Hep G2 cell line; test: cell-based ARE β-lactamase reporter assay; design: species or system human
[3] = target: T1, Keap1 Kelch domain; test: SPR-based solution competition assay; assay type: binding; design: 40 nM of Keap1 Kelch domain was incubated in the presence of test compounds; inferred from vector pET15b and Ni-NTA purification of the one described Kelch preparation) (N); made in house; host or cells: E. coli BL21 (DE3)
[4] = Keap1-retest in dose, 8-point FP dose-response of HTS hits

IC50 [1, 4] | Structure (SMILES) | other results
– | O=C(O)[C@@H]1CCCC[C@@H]1C(=O)N1CCc2ccccc2C1CN1C(=O)c2ccccc2C1=O (relative stereo) [LH601C/D] | ARE-inducing activity (in words) [2]: inactive
– | O=C(O)[C@H]1CCCC[C@H]1C(=O)N1CCCCC1CN1C(=O)c2ccccc2C1=O (relative stereo) [LH641, cis-2-(2-((1,3-dioxoisoindolin-2-yl)methyl)piperidine-1-carbonyl)cyclohexane carboxylic acid] | binding to Keap1 Kelch domain (in words) [3]: complete loss of binding
135 µM | NS(=O)(=O)c1cc(C(=O)NC2CCSc3ccccc32)ccc1Cl (stereo not drawn) [BRD-A83249228-001-07-1, 3-(Aminosulfonyl)-4-chloro-N-(3,4-dihydro-2H-1-benzothiopyran-4-yl)benzamide] | –
26 µM | COc1ccc(C(C)=NNc2ccc([N+](=O)[O-])cc2S(=O)(=O)Nc2ccccc2C(=O)O)c(OC)c1 [BRD-K09114961-001-03-6, 2-[[[2-[2-[1-(2,4-dimethoxyphenyl)ethylidene]hydrazinyl]-5-nitrophenyl]sulfonyl]amino] benzoic acid] | –
19 µM | O=C(O)c1cc(N2C(=O)C=CC2=O)cc(N2C(=O)C=CC2=O)c1 [BRD-K11951445-001-04-1, 3,5-Bis(2,5-dihydro-2,5-dioxo-1H-pyrrol-1-yl)-benzoic acid] | –
91 µM | COc1cc(NS(=O)(=O)c2ccc(NC(=S)NC(=O)/C=C/c3ccco3)cc2)ncn1 [BRD-K42553821-001-05-9, 3-(2-Furanyl)-N-[[[4-[[(6-methoxy-4-pyrimidinyl)amino]sulfonyl]phenyl]amino]-thioxomethyl]-2-Propenamide] | –
55 µM | O=C1CCCc2oc3c(cc(NS(=O)(=O)c4ccc5c6c(cccc46)C(=O)N5)c4ccccc43)c21 [BRD-K91732811-001-06-9, 1,2-Dihydro-2-oxo-N-(7,8,9,10-tetrahydro-7-oxobenzo[b]naphtho[2,1-d]furan-5-yl) benz[cd]indole-6-sulfonamide] | –

Structure (SMILES) | IC50 [1, 4] | other results
Cc1ccc(S(=O)(=O)Nc2cc(C(C(=O)OC(C)C)C(=O)C(F)(F)F)c(O)c3ccccc23)c(C)c1 (racemic) [LH602, 4-[[(2,4-Dimethylphenyl)sulfonyl]amino]-1-hydroxy-α-(2,2,2-trifluoroacetyl)-2-naphthaleneacetic acid, 1-methylethyl ester] | 2.7 µM | IC50 ([1]; resynthesized compound): 3 µM; EC50 ([2]; Homo sapiens, HepG2, read-out: EC50 of ARE-inducing activity): 16 to 18 µM; Kd ([3]; Keap1 Kelch domain, SPR, read-out: Kd (Keap1 binding affinity)): 1.7 µM
CC1=C[C@@H]2c3cccc4[nH]cc(c34)C[C@H]2N(C)C1 [BRD-K56215778-001-06-9, 8,9-Didehydro-6,8-dimethyl-ergoline] | 37 µM | –
